Results reported in the supplement of paper PMC10307832.

Legend:
Experiment in all cases: relative viability (nuclei count vs DMSO), 5 days (fraction); higher = more cells survive
H3255 = test system: H3255
In short: (§1)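 The day after seeding in 1536-well plates, lung cancer cell lines were treated by pin tool with a single drug, or with a fixed anchor-drug dose together with five library-drug doses (not always all listed) in √10 steps. After 5 days, a combined fix-and-stain solution (final 0.05% Triton X-100, 1% formaldehyde, 1 ug/ml Hoechst) was added. Nuclei counted on 4× images gave relative viability as treated counts over vehicle counts, reported as the median of duplicate plates.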

SK-MES-1 = test system: SK-MES-1
In short: as §1

ChaGo-K-1 = test system: ChaGo-K-1
In short: as §1

EMC-BAC-2 = test system: EMC-BAC-2
In short: as §1

NCI-H1993 = test system: NCI-H1993
In short: as §1

NCI-H2087 = test system: NCI-H2087
In short: as §1

EPLC-272H = test system: EPLC-272H
In short: as §1

NCI-H1944 = test system: NCI-H1944
In short: as §1

NCI-H1395 = test system: NCI-H1395
In short: as §1

NCI-H650 = test system: NCI-H650
In short: as §1

LCLC-103H = test system: LCLC-103H
In short: as §1

LCLC-97TM1 = test system: LCLC-97TM1
In short: as §1

Structure (SMILES): COc1cc(N2CCC(C(N)=O)CC2)ccc1Nc1nc(N)c(Cl)c(Nc2ccccc2S(=O)(=O)C(C)C)n1 [HG-5-88-01] + CCNC(=O)c1noc(-c2cc(C(C)C)c(O)cc2O)c1-c1ccc(CN2CCOCC2)cc1 [Luminespib] (partner 0.01 µM)
- relative viability (H3255; first compound 0.04 µM): 0.752
- relative viability (H3255; first compound 0.1265 µM): 0.913
- relative viability (H3255; first compound 0.4 µM): 0.818
- relative viability (H3255; first compound 4 µM): 0.847
- relative viability (SK-MES-1; first compound 0.04 µM): 0.843
- relative viability (SK-MES-1; first compound 0.1265 µM): 0.82
- relative viability (SK-MES-1; first compound 0.4 µM): 0.823
- relative viability (SK-MES-1; first compound 1.265 µM): 0.782
- relative viability (SK-MES-1; first compound 4 µM): 0.689
- relative viability (ChaGo-K-1; first compound 0.04 µM): 0.572
- relative viability (ChaGo-K-1; first compound 0.1265 µM): 0.682
- relative viability (ChaGo-K-1; first compound 0.4 µM): 0.516
- relative viability (ChaGo-K-1; first compound 1.265 µM): 0.66
- relative viability (ChaGo-K-1; first compound 4 µM): 0.733
- relative viability (EMC-BAC-2; first compound 0.04 µM): 1.09
- relative viability (EMC-BAC-2; first compound 0.1265 µM): 1.25
- relative viability (EMC-BAC-2; first compound 0.4 µM): 1.14
- relative viability (EMC-BAC-2; first compound 1.265 µM): 1.12
- relative viability (EMC-BAC-2; first compound 4 µM): 0.892
- relative viability (NCI-H1993; first compound 0.04 µM): 0.957
- relative viability (NCI-H1993; first compound 0.1265 µM): 0.826
- relative viability (NCI-H1993; first compound 0.4 µM): 0.83
- relative viability (NCI-H1993; first compound 1.265 µM): 0.648
- relative viability (NCI-H1993; first compound 4 µM): 0.578
- relative viability (NCI-H2087; first compound 0.04 µM): 0.173
- relative viability (NCI-H2087; first compound 0.1265 µM): 0.228
- relative viability (NCI-H2087; first compound 0.4 µM): 0.173
- relative viability (NCI-H2087; first compound 1.265 µM): 0.19
- relative viability (NCI-H2087; first compound 4 µM): 0.204
- relative viability (EPLC-272H; first compound 0.04 µM): 0.384
- relative viability (EPLC-272H; first compound 0.1265 µM): 0.269
- relative viability (EPLC-272H; first compound 0.4 µM): 0.347
- relative viability (EPLC-272H; first compound 1.265 µM): 0.181
- relative viability (EPLC-272H; first compound 4 µM): 0.204
- relative viability (NCI-H1944; first compound 0.04 µM): 0.808
- relative viability (NCI-H1944; first compound 0.1265 µM): 0.821
- relative viability (NCI-H1944; first compound 0.4 µM): 0.759
- relative viability (NCI-H1944; first compound 1.265 µM): 0.673
- relative viability (NCI-H1944; first compound 4 µM): 0.729
- relative viability (NCI-H1395; first compound 0.04 µM): 0.723
- relative viability (NCI-H1395; first compound 0.1265 µM): 0.611
- relative viability (NCI-H1395; first compound 0.4 µM): 0.669
- relative viability (NCI-H1395; first compound 1.265 µM): 0.532
- relative viability (NCI-H1395; first compound 4 µM): 0.989
- relative viability (NCI-H650; first compound 0.04 µM): 0.87
- relative viability (NCI-H650; first compound 0.1265 µM): 0.802
- relative viability (NCI-H650; first compound 0.4 µM): 0.816
- relative viability (NCI-H650; first compound 1.265 µM): 0.63
- relative viability (NCI-H650; first compound 4 µM): 0.772
- relative viability (LCLC-103H; first compound 0.04 µM): 1.08
- relative viability (LCLC-103H; first compound 0.1265 µM): 1.01
- relative viability (LCLC-103H; first compound 0.4 µM): 0.888
- relative viability (LCLC-103H; first compound 1.265 µM): 0.894
- relative viability (LCLC-103H; first compound 4 µM): 0.879
- relative viability (LCLC-97TM1; first compound 0.04 µM): 0.864
- relative viability (LCLC-97TM1; first compound 0.1265 µM): 0.647
- relative viability (LCLC-97TM1; first compound 0.4 µM): 0.713
